# Test results as given in patent publication US12029751B2, “Therapeutic agent for nervous system disease” (OSAKA UNIVERSITY, priority 2017, dated 2024).
# Legend:
# [1] = system: rat spinal cord injury model; assay: BBB score in rat spinal cord injury model (lateral hemisection model); type: in vivo; settings: 1 mg/kg/day osmotic minipump; for BBB score: left lower extremity
# Description: Six-week-old female Wistar rats were used. The rats were purchased from Charles River Laboratories Japan, Inc. (Yokohama, Japan). Anesthesia was performed as follows. A 1:10 dilution of a mixture of three anesthetic agents in physiological saline was administered by intraperitoneal injection. One dose consisted of 0.2 mg/kg of midazolam, 0.015 mg/kg of medetomidine, and 0.25 mg/kg of butorphanol. The rat was placed in a prone position on an operating table, and a dorsal midline incision was made. The T10 vertebral arch was removed to expose the posterior face of the spinal cord, and the left spinal cord was hemisected using a sharp-pointed surgical scalpel (spitz mess). The skin was sutured using a 4-0 nylon thread and the surgery was completed. A comparison was made among three groups: a methylcobalamin treatment group, an untreated group, and a sham group. Immediately after the surgical operation, an osmotic minipump filled with methylcobalamin (1 mg/kg/day) or physiological saline was placed for the methylcobalamin treatment group and the untreated group, respectively, and left in the left dorsal subcutaneous space. The sham group underwent only resection of the Th10 vertebral arch.
# Each rat was separately accommodated in a cage, allowed to walk freely, and observed for 5 minutes. According to a conventional method, left-lower-extremity function was evaluated using scores of 0 (no locomotion) to 21 (normal locomotion). The evaluations were performed before surgery, and at 1, 7, 14, 21, and 28 days after the surgery.
# [2] = system: tMCAO model C57BL/6J mice; assay: Brain ischemic lesion volume by TTC staining in transient middle cerebral artery occlusion (tMCAO) model; type: in vivo, mouse; settings: 2 days after tMCAO surgery
# Text: Eight- to 9-week-old male C57BL/6J mice (about 24 g) were used. A probe for a laser Doppler blood flow meter was placed on the right skull such that blood flow in the middle cerebral artery could be monitored. The right cervical region was cut and opened, and the external carotid artery was ligated. Then, the common carotid artery was cut, and a nylon thread was inserted into the common carotid artery, and the tip was advanced while the blood flow was checked using a blood flow monitor. When the tip reached the bifurcation of the middle cerebral artery and a decrease in blood flow was observed, this state was held for 1 hour at a rectal temperature of 37° C. Then, the nylon thread was removed, and the common carotid artery was ligated. In order to administer methylcobalamin continuously, an osmotic minipump was placed and left in the dorsal subcutaneous space. […]
# At 2 days after the surgery, the mouse (Example 4-1) was sacrificed, and the cerebrum was excised. […] Images were obtained by a stereoscopic microscope, the ischemic lesion area in each slice was calculated, and all ischemic lesion areas of the cerebrum slices were summed up to calculate an ischemic lesion volume. The ischemic lesion area in each slice was calculated by the following formula: Area of unaffected hemisphere—area of affected side intact portion.
smiles,measurement,setting,value
"C/C1=C2/[N-][C@H]([C@H](CC(N)=O)[C@@]2(C)CCC(=O)NC[C@@H](C)OP(=O)([O-])O[C@H]2[C@@H](O)[C@@H](n3cnc4cc(C)c(C)cc43)O[C@@H]2CO)[C@]2(C)N=C(/C(C)=C3N=C(/C=C4N=C1[C@@H](CCC(N)=O)C\4(C)C)[C@@H](CCC(N)=O)[C@]\3(C)CC(N)=O)[C@@H](CCC(N)=O)[C@]2(C)CC(N)=O.[CH3-].[Co+3] [MeCbl, methylcobalamin]",BBB score,[1]; 0 days after surgery (before surgery),21
same,left-lower-extremity motor function (BBB score) as compared to the untreated group,"[1]; 14, 21, and 28 days after the surgery",significantly improved
same,BBB score,[1]; 1 day after surgery,0.17
same,BBB score,[1]; 7 days after surgery,8.33
same,BBB score,[1]; 14 days after surgery,15.50
same,BBB score,[1]; 21 days after surgery,16.33
same,BBB score,[1]; 28 days after surgery,17
same,ischemic lesion volume,"[2]; 1 mg/kg/day continuous, osmotic minipump",28.8
same,reduction of ischemic lesion volume as compared with the control group,[2]; 1 mg/kg/day,about ½
